US20090111823A1, “AMINOPYRIDINE DERIVATIVES AS MODULATORS OF MGLUR5” (AstraZeneca AB, priority 2007, published 2009)

Assays:
[1] = Determination of brain to plasma ratio in rat; assay type: in vivo; conditions: female Sprague Dawley rats, read-out: Brain/Plasma Ratio of compound in Rat
Method: Brain to plasma ratios are estimated in female Sprague Dawley rats. The compound is dissolved in water or another appropriate vehicle. For determination of brain to plasma ratio the compound is administrated as a subcutaneous, or an intravenous bolus injection, or an intravenous infusion, or an oral administration. At a predetermined time point after the administration a blood sample is taken with cardiac puncture. The rat is terminated by cutting the heart open, and the brain is immediately retained. The blood samples are collected in heparinized tubes and centrifuged within 30 minutes, in order to separate the plasma from the blood cells. The plasma is transferred to 96-well plates and stored at −20° C. until analysis. The brains are divided in half, and each half is placed in a pre-tarred tube and stored at −20° C. until analysis. Prior to the analysis, the brain samples are thawed and 3 mL/g brain tissue of distilled water is added to the tubes. The brain samples are sonicated in an ice bath until the samples are homogenized. Both brain and plasma samples are precipitated with acetonitrile. After centrifugation, the supernatant is diluted with 0.2% formic acid. Analysis is performed on a short reversed-phase HPLC column with rapid gradient elution and MSMS detection using a triple quadrupole instrument with electrospray ionisation and Selected Reaction Monitoring (SRM) acquisition. Liquid-liquid extraction may be used as an alternative sample clean-tip. The samples are extracted, by shaking, to an organic solvent after addition of a suitable buffer. An aliquot of the organic layer is transferred to a new vial and evaporated to dryness under a stream of nitrogen. After reconstitution of the residuals the samples are ready for injection onto the HPLC column.

human mGluR5d = target: T1, human mGluR5d (Homo sapiens, UniProt P41594); experiment: FLIPR assay, mobilization of intracellular calcium in cells expressing human mGluR5d; assay type: cell-based; conditions: antagonism, read-out: FLIPR hmGluR5d
T1 construct: expressed in transfected cells; The separate IP3 assay uses GHEK cells stably expressing human mGluR5d
From the text: Functional Assessment of mGluR5 Antagonism in Cell Lines Expressing mGluR 5D
The properties of the compounds of the invention can be analyzed using standard assays for pharmacological activity. Examples of glutamate receptor assays are well known in the art as described in for example Aramori et al, Neuron 8:757 (1992), Tanabe et al., Neuron 8:169 (1992), Miller et al., J. Neuroscience 15: 6103 (1995), Balazs, et al., J. Neurochemistry 69:151 (1997). The methodology described in these publications is incorporated herein by reference. Conveniently, the compounds of the invention can be studied by means of an assay (FLIPR) that measures the mobilization of intracellular calcium, [Ca^2+]i in cells expressing mGluR5 or another assay (IP3) that measures inositol phosphate turnover.
Cells expressing human mGluR5d as described in WO97/05252 cultured in a mixture of high glucose DMEM with Glutamax (31966-021)(500 mL), 10% dialyzed fetal bovine serum (Hyclone #SH30079.03)(56 mL), 200 μg/mL Hygromycin B (Invitrogen 45-0430, 50 mg/mL)(2.2 mL), 200 μg/mL Zeocin (invitrogen #R250-01; 100 mg/mL)(1.1 mL) are seeded at a density of 100,000 cells per well on collagen coated clear bottom 96-well plates with black sides and cells were allowed to adhere over night before experiments. All assays are done in a buffer containing 146 mM NaCl, 5 mM KCl, 1 mM MgCl2, 1 mM CaCl2, 20 mM HEPES, 1 mg/mL glucose and 1 mg/mL BSA Fraction IV (pH 7.4). Cell cultures in the 96-well plates are loaded for 60 minutes in the above mentioned buffer containing 6 μM of the acetoxymethyl ester form of the fluorescent calcium indicator fluo-3 (Molecular Probes, Eugene, Oreg.) in 0.025% pluronic acid (a proprietary, non-ionic surfactant polyol—CAS Number 9003-11-6). […] The fluorescence signal is sampled 50 times at 1-second intervals followed by 3 samples at 5-second intervals immediately after each of the two additions. Responses are measured as the difference between the peak heights of the response to agonist, less the background fluorescence within the sample period. […]

T1 sequence (P41594 21-942 isoform P41594-3 limits assumed): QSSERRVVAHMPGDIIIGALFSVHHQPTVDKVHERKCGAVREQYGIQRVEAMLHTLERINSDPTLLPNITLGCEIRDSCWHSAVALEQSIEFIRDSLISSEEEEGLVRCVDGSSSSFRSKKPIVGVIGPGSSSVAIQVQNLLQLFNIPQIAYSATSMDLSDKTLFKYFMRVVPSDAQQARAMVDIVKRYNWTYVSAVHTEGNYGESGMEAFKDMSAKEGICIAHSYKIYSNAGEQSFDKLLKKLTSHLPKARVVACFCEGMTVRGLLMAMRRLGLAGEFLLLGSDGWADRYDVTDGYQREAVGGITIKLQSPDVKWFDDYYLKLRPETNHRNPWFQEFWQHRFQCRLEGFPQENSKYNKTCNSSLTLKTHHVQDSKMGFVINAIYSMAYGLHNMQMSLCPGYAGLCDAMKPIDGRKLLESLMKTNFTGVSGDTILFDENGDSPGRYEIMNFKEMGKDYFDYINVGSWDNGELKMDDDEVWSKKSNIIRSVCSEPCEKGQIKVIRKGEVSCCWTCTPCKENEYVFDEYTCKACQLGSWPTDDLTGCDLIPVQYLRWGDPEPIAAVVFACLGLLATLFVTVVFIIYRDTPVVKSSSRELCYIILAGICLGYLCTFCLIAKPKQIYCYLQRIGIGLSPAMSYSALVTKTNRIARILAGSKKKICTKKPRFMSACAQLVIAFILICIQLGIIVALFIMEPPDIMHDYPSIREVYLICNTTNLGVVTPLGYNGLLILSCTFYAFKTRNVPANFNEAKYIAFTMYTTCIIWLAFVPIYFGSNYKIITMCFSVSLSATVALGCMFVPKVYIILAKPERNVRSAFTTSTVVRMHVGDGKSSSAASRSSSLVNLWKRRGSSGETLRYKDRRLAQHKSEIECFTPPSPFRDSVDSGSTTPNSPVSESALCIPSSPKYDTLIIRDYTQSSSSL

Kp [1] | IC50 (human mGluR5d) | SMILES
0.285 | 39 nM | CN(C)c1ccc(-c2nnc(N3CCC[C@@H]3c3cc(-c4cccc(Cl)c4)on3)n2C)cn1 [Example 5.1, 5-(5-{(2R)-2-[5-(3-Chlorophenyl)isoxazol-3-yl]pyrrolidin-1-yl}-4-methyl-4H-1,2,4-triazol-3-yl)-N,N-dimethylpyridin-2-amine]
< 0.01 | 34 nM | Cn1c(-c2ccc(N)nc2)nnc1N1CCCC1c1cc(-c2ccccc2)on1 (stereo in doubt) [Example 5.3, 5-{4-Methyl-5-[(2R)-2-(5-phenylisoxazole-3-yl)pyrrolidin-1-yl]-4H-1,2,4-triazol-3-yl}pyridin-2-amine]
0.085 | < 3 nM | Cn1c(-c2ccc(N)nc2)nnc1N1CCC[C@@H]1c1cc(-c2cccc(Cl)c2)on1 [Example 5.2, 5-(5-{(2R)-2-[5-(3-Chlorophenyl)isoxazol-3-yl]pyrrolidin-1-yl}-4-methyl-4H-1,2,4-triazol-3-yl)pyridin-2-amine]
